Some test systems named below: OVCAR-5; MDA-MB-435; HT-29; OVCAR-8; A549; NCI/ADR-RES; PC-3; UO-31; RPMI-8226; CCRF-CEM; 786-0; UACC-257; HCT-15; A498; NCI-H522; SF-295; SF-539; MOLT-4; DU-145; SNB-75.
Common to all, as to assay: inhibition of tumour cell growth, NCI panel, 48 h

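Step 1: Grow cells in 96-well plates. Step 2: Expose to compound for 48 hours at 5 concentrations. Step 3: Interpolate endpoints linearly; if unreached, use highest concentration. GI50 marks 50% less growth.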 Active and inactive are the calls of the source. Cut-off read from the data, not from the text of the source: active = GI50 up to about 1.1 µM and inactive = higher. Bounds are passed on as bounds.

For `N=C(N)N/N=C/c1c(-c2ccc(Cl)c([N+](=O)[O-])c2)nc2sccn12`, the GI50 was 1.71 µM (inactive) in the assay on OVCAR-5; 0.6 µM (active) in the assay on MDA-MB-435; 1.52 µM (inactive) with HT-29; 2.11 µM (inactive) with OVCAR-8; 1.75 µM (inactive) in the assay with A549; > 100 µM (inactive) in the assay with NCI/ADR-RES. In addition, the GI50 was 1.65 µM (inactive) in the assay with PC-3; 1.85 µM (inactive) in the assay on UO-31; 2.06 µM (inactive) in the assay on RPMI-8226; 1.41 µM (inactive) with CCRF-CEM; 1.73 µM (inactive) in the assay with 786-0; 1.91 µM (inactive) in the assay with UACC-257. Moreover, the GI50 was 2.21 µM in the assay with HCT-15; 1.72 µM (inactive) in the assay on A498; 2.01 µM (inactive) in the assay with NCI-H522; 1.75 µM (inactive) in the assay on SF-295; 1.82 µM (inactive) in the assay on SF-539; 1.71 µM (inactive) with MOLT-4. Further, the GI50 is 1.78 µM (inactive) in the assay with DU-145 and 1.62 µM (inactive) in the assay on SNB-75.
Take `CC(NC(=O)OC(C)(C)C)C(=O)NC(Cc1ccccc1)C(=O)NCC(=O)ON=C1CCCC1` (stereo not given): the GI50 in the assay on OVCAR-5, in the assay on MDA-MB-435, in the assay with HT-29, with OVCAR-8, with A549 and in the assay on NCI/ADR-RES was > 100 µM (inactive) in each case. The GI50 in the assay on PC-3 was > 100 µM (inactive); with UO-31, 65.8 µM (inactive); with RPMI-8226, 97.5 µM (inactive); in the assay with CCRF-CEM it was 90.2 µM (inactive); in the assay with 786-0, > 100 µM (inactive); with UACC-257, > 100 µM (inactive). Besides, the GI50 in the assay with HCT-15 is more than 100 µM; in the assay with A498, > 100 µM (inactive); with NCI-H522, 32.7 µM (inactive); with SF-295 it was > 100 µM (inactive); in the assay on SF-539, > 100 µM (inactive); in the assay on MOLT-4, 41.9 µM (inactive). The GI50 is > 100 µM (inactive) with DU-145 and 93.1 µM (inactive) in the assay with SNB-75.
Regarding `CC(C)NC(=O)OCc1c(COC(=O)NC(C)C)c(-c2ccc[n+](COC(=O)C3CC3)c2)n2c1CCC2`, the GI50 with OVCAR-5 is > 100 µM (inactive); with MDA-MB-435 it was > 100 µM (inactive); in the assay with HT-29, 79.4 µM (inactive); in the assay on OVCAR-8, 55 µM (inactive); in the assay on A549, 89.1 µM (inactive); in the assay with NCI/ADR-RES, 47.1 µM (inactive). Also, the GI50 in the assay with PC-3 was 50.5 µM (inactive); in the assay with UO-31, 41.2 µM (inactive); in the assay with RPMI-8226 it was 60.4 µM (inactive); in the assay on CCRF-CEM it was 30.4 µM (inactive); in the assay on 786-0 it was 27 µM (inactive); with UACC-257, > 100 µM (inactive). For the same compound, the GI50 is 87.3 µM in the assay with HCT-15; 35.9 µM (inactive) in the assay with A498; 27.1 µM (inactive) in the assay with NCI-H522; 45.9 µM (inactive) in the assay with SF-295; 44.7 µM (inactive) with SF-539; 14.9 µM (inactive) in the assay on MOLT-4. Also, the GI50 is 37.6 µM (inactive) in the assay with DU-145 and 70.6 µM (inactive) with SNB-75.
On to `CCC(=O)Nc1cccc(NC(=O)c2c(Cl)c(Cl)c(Cl)c(Cl)c2-c2nc3ccccc3[nH]2)c1`, for which the GI50 in the assay with OVCAR-5 is > 100 µM (inactive); in the assay with MDA-MB-435, 32.4 µM (inactive); in the assay with HT-29 it was 66.2 µM (inactive); with OVCAR-8, > 100 µM (inactive); in the assay on A549, 0.0851 µM (active); in the assay with NCI/ADR-RES it was > 100 µM (inactive). For the same compound, the GI50 in the assay with PC-3 is 44.8 µM (inactive); with UO-31 it was 21.7 µM (inactive); with RPMI-8226, 8.02 µM (inactive); in the assay with CCRF-CEM, 7.45 µM (inactive); in the assay on 786-0 it was 84.9 µM (inactive); with UACC-257 it was 59 µM (inactive). Moreover, the GI50 in the assay with HCT-15 was 60.7 µM; with A498 it was > 100 µM (inactive); in the assay with NCI-H522, 56.2 µM (inactive); in the assay on SF-295, 0.0417 µM (active); in the assay on SF-539, > 100 µM (inactive); in the assay on MOLT-4, 22.8 µM (inactive). Moreover, the GI50 in the assay with DU-145 was > 100 µM (inactive); in the assay on SNB-75, 3.94 µM (inactive).
`CC[C@@]1(OC(=O)C(N)CCCCN)C(=O)OCc2c1cc1n(c2=O)Cc2cc3ccccc3nc2-1` (stereo not given in full): the GI50 is 0.238 µM (active) with OVCAR-5; 0.293 µM (active) in the assay with MDA-MB-435; 0.133 µM (active) in the assay on HT-29; 0.0502 µM (active) with OVCAR-8; 0.0274 µM (active) in the assay with A549; 0.0354 µM (active) in the assay with NCI/ADR-RES. The GI50 in the assay on PC-3 is 0.171 µM (active); with UO-31, 0.0263 µM (active); in the assay on RPMI-8226, 0.0327 µM (active); with CCRF-CEM, < 0.01 µM (active); with 786-0 it was 0.0148 µM (active); with UACC-257 it was 0.143 µM (active). Also, the GI50 was 0.248 µM with HCT-15; 0.0802 µM (active) in the assay with A498; 0.0454 µM (active) with NCI-H522; < 0.0109 µM (active) in the assay on SF-295; 0.0203 µM (active) in the assay on SF-539; < 0.01 µM (active) in the assay with MOLT-4. Besides, the GI50 in the assay with DU-145 was < 0.0199 µM (active); in the assay on SNB-75 it was 0.0336 µM (active).
As for `Cc1ccc2cccc(-c3cccc4ccccc34)c2n1`, the GI50 with OVCAR-5 is 18.3 µM (inactive); in the assay on MDA-MB-435, 2.69 µM (inactive); in the assay with HT-29 it was 20.7 µM (inactive); in the assay on OVCAR-8 it was 22.1 µM (inactive); in the assay on A549, 29.5 µM (inactive); with NCI/ADR-RES, 26.1 µM (inactive). Also, the GI50 with PC-3 was 29.2 µM (inactive); in the assay with UO-31, 14.3 µM (inactive); in the assay on RPMI-8226, 13.1 µM (inactive); with CCRF-CEM it was 19.8 µM (inactive); with 786-0 it was 27.4 µM (inactive); with UACC-257, 29.9 µM (inactive). The GI50 is 21.7 µM with HCT-15; 20.4 µM (inactive) in the assay with A498; 23.7 µM (inactive) in the assay on NCI-H522; 22.9 µM (inactive) with SF-295; 24 µM (inactive) in the assay on SF-539; 13.2 µM (inactive) in the assay with MOLT-4. Moreover, the GI50 in the assay on DU-145 is 36.8 µM (inactive); in the assay with SNB-75, 8.87 µM (inactive).
For `O=C1CS/C(=N/N=C/c2cn(Cc3ccc(Cl)cc3Cl)c3ccccc23)N1`, the GI50 with OVCAR-5 is > 100 µM (inactive); with MDA-MB-435, 25 µM (inactive); in the assay on HT-29, 50.1 µM (inactive); in the assay on OVCAR-8, 10.8 µM (inactive); in the assay with A549, 63 µM (inactive); in the assay on NCI/ADR-RES it was 24.5 µM (inactive). Further, the GI50 was 19.6 µM (inactive) with PC-3; 31.8 µM (inactive) in the assay on UO-31; 52.1 µM (inactive) in the assay with RPMI-8226; 15.8 µM (inactive) in the assay on CCRF-CEM; 22.4 µM (inactive) in the assay on 786-0; 67.8 µM (inactive) with UACC-257. Also, the GI50 is 37.3 µM in the assay with HCT-15; 19.9 µM (inactive) in the assay on A498; 44.9 µM (inactive) in the assay on NCI-H522; 64.4 µM (inactive) with SF-295; 18.2 µM (inactive) in the assay on SF-539; 38.2 µM (inactive) in the assay with MOLT-4. In addition, the GI50 in the assay with DU-145 is 53.6 µM (inactive); in the assay on SNB-75, 19.1 µM (inactive).
For `CC1=NN2C(=N)/C(=C/c3ccccc3)C(=O)N=C2S1`, the GI50 with OVCAR-5 was > 100 µM (inactive); in the assay with MDA-MB-435 it was > 100 µM (inactive); in the assay with HT-29 it was > 100 µM (inactive); in the assay on OVCAR-8, > 100 µM (inactive); in the assay on A549, > 100 µM (inactive); with NCI/ADR-RES, > 33.1 µM (inactive). Also, the GI50 in the assay with PC-3, in the assay with UO-31, in the assay on RPMI-8226, in the assay with CCRF-CEM, in the assay with 786-0 and in the assay with UACC-257 was > 100 µM (inactive) in each case. Also, the GI50 in the assay on HCT-15 is more than 100 µM; in the assay on A498 it was > 100 µM (inactive); with NCI-H522, > 36.9 µM (inactive); in the assay with SF-295 it was > 100 µM (inactive); with SF-539, > 100 µM (inactive); in the assay on MOLT-4 it was > 100 µM (inactive). For the same compound, the GI50 with DU-145 and in the assay with SNB-75 was > 100 µM (inactive) in each case.
For the compound `OC1CC2CCC(C1)N2CCCN1c2ccccc2Sc2ccc(Cl)cc21` (stereo not given), the GI50 in the assay on OVCAR-5 is 2.82 µM (inactive); with MDA-MB-435, 1.73 µM (inactive); in the assay on HT-29, 1.67 µM (inactive); in the assay with OVCAR-8, 2.11 µM (inactive); in the assay on A549, 2.54 µM (inactive); with NCI/ADR-RES, 2.36 µM (inactive). Moreover, the GI50 with PC-3 is 2.12 µM (inactive); in the assay on UO-31, 2.46 µM (inactive); in the assay with RPMI-8226 it was 1.87 µM (inactive); in the assay on CCRF-CEM, 1.94 µM (inactive); in the assay with 786-0, 1.83 µM (inactive); in the assay with UACC-257, 1.29 µM (inactive). Further, the GI50 in the assay on HCT-15 is 2.49 µM; in the assay with A498, 1.84 µM (inactive); in the assay on NCI-H522, 1.99 µM (inactive); with SF-295, 1.75 µM (inactive); with SF-539 it was 1.84 µM (inactive); in the assay with MOLT-4, 2.29 µM (inactive). Moreover, the values for the GI50 in the assay with DU-145 and in the assay with SNB-75 were 3.81 µM (inactive) and 2.21 µM (inactive), respectively.
As to `Cc1ccc(S(=O)(=O)NC(=O)Nc2nc[nH]n2)cc1`, the GI50 in the assay on OVCAR-5, with MDA-MB-435, in the assay on HT-29, with OVCAR-8, in the assay on A549 and in the assay with NCI/ADR-RES was > 100 µM (inactive) throughout. The GI50 in the assay on PC-3, with UO-31, in the assay on RPMI-8226, with CCRF-CEM, in the assay on 786-0 and with UACC-257 was > 100 µM (inactive) in each case. Further, the GI50 in the assay with HCT-15 is more than 100 µM; in the assay with A498, > 100 µM (inactive); in the assay on NCI-H522, > 100 µM (inactive); in the assay with SF-295 it was > 100 µM (inactive); with SF-539 it was > 100 µM (inactive); in the assay on MOLT-4, > 100 µM (inactive). Besides, the GI50 with DU-145 and with SNB-75 was > 100 µM (inactive) throughout.
